Source: US9802897B2, “Amidopyridinol derivative or pharmaceutically acceptable salt thereof and pharmaceutical composition comprising same as active component” (Research Cooperation Foundation of Yeungnam University, priority 2013, dated 2017)
Marks after values point to notes of the source that are not given here. Non-standard residues stand in square brackets, D forms with d. Residues, ends and D or L forms follow the SMILES beside them. *: point of attachment. Sta = CC(C)C[C@H](N)[C@@H](O)CC(=O)O; Isovaleryl = CC(C)CC(=O)*; Cbz = O=C(OCc1ccccc1)*; CH2F = FC*

Legend:
MDA-MB-231 cells = assay: Transwell invasion assay of MDA-MB-231 breast cancer cells; assay type: cell-based; settings: for invasion of MDA-MB-231 cells (in words): cathepsin inhibitors vs cells not treated with inhibitors
Protocol: The invasion assay was performed by using the transwell insert (BD FALCON, Bedford, USA) equipped with a 8 μm pore-sized filter. An upper part of the transwell insert filter was coated with 20 μl of matrigel (1 mg/ml) while a bottom part of the same was coated with 30 μl of type I collagen (0.5 mg/ml). The MDA-MB-231 cells (5×10^5 cells/100 μl) were added to the insert chamber, and then, each inhibitor was also added thereto. To induce invasion of the cells, a medium supplemented with 5% FBS was added to each well of the bottom chamber to allow a reaction at a temperature of 37° C. in a cell incubator. 18 hours later, the cells remained after removing the solution in the insert chamber were removed by using a cotton swab, whereas cells at the bottom of the membrane were fixed with methanol and stained with hematoxylin and eosin. The cells present at the membrane were observed through a microscope, and the number of the cells was counted in the selected 5 fields at the resolution of 200×.
According to the same manner as in Experimental Example 7, inhibitory effects of the amidopyridinol derivatives synthesized in Examples above on invasion of breast cancer cells, e.g., MDA-MB-231, were reviewed. Here, to compare with, inhibitory effects of aminopyridinol derivatives, e.g., 6-amino-2,4,5-trimethylpyridine-3-ol (BJ-1101) and 6-diphenylamino-2,4,5-trimethylpyridine-3-ol (BJ-1201), on invasion of breast cancer cells, e.g., MDA-MB-231, were reviewed.

HT-29 cells / U937 cells = assay: TNF-α-induced adhesion of HT-29 intestinal epithelial cells and U937 mononuclear cells; assay type: cell-based, human; settings: 1 μM, pre-treated 1 hour, TNF-α 10 ng/ml; for inhibition at 1 µM: Homo sapiens, read-out: Inhibitory rates (%)
Protocol: HT-29 cells were cultured in a 24-well plate at a concentration of […] cells/cm^2, and meanwhile, amidopyridinol compounds 8a to 8z were pre-treated for 1 hour at each concentration in a serum-free medium supplemented only with 1% PS. Next, 10 ng/ml of TNF-α was treated therewith to allow a reaction at a temperature of 37° C. for 3 hours. After the completion of the reaction, the medium of the HT-29 cells was removed, and then, the HT-29 cells were washed with PBS once. Afterwards, U937 cells, which were treated and reacted with 10 μg/mL of BCECF-AM at a temperature of 37° C. for 30 minutes, were allowed to react with the HT-29 cells at temperature of 37° C. for 1 hour. Then, to remove U937 cells that were not adhered to the HT-29 cells, the reacted cells were washed with PBS twice. In terms of cell dissolution, 0.1% Triton X-100 in 0.1M Tris was allowed to react with the cells for 30 minutes at room temperature, and then, the cells were subjected to quantify by measuring fluorescence thereof using the Fluostar optima microplate reader (BMG Labtechnologies, Germany).

[1] = system: VEGF-induced angiogenesis in chicken chorioallantoic membrane (CAM); assay: CAM analysis of VEGF-induced angiogenesis; assay type: in vivo; settings: VEGF (20 ng/CAM) + Compound (0.01 nmol/CAM), number of blood vessels after 3 days; for inhibition in vivo at 0.01 nmol/CAM: Gallus gallus, 72 h, read-out: Inhibitory rates (%)
Protocol: To confirm inhibitory effects on angiogenesis through in vivo experiments, the chorioallantoic membrane (CAM) analysis was carried out (refer to Nguyen M et al., Microvascular Res., 47, pp 31-40, 1994). A fertilized egg of a chicken was cultured in conditions maintaining a temperature of 37° C. and relative humidity of 55%. On the 10th day of the culturing, a first small hole was made on an air sac part using a hypodermic needle (Green Cross Medical Corp., Korea), and then, a second hole was made on a flat part of the fertilized egg to make a window thereon. Air was removed through the first hole, i.e., the air sac part, and accordingly, the CAM was separated from the shell of the fertilized egg. Then, a grinding wheel (Multipro 395JA, Dremel, Mexico) was used to cut the air sac part, thereby making a window thereon. Next, the whatman filter disk #1 (Whatman Company, USA) was treated with 3 mg/mL of cortisone acetate, dried, and then, wet by VEGF at a concentration of 20 ng/CAM. The filter disk was placed on blood vessels through the window, and then, compounds prepared according to Examples above were each dissolved in DMSO, diluted with PBS, and then, treated for each concentration. After 3 days of treating the compounds, the CAM part on which the filter disk was placed was isolated, and then, washed with PBS. The Stemi SV6 stereomicroscope (Carl Zeiss, Germany) and the Image-Pro Plus software (Media Cybernetics; Silver Spring, Md., USA) were used to capture images of the CAM part, so as to measure the number of the blood vessels and to analyze data obtained therefrom.

A549 lung cancer cells = assay: CAM inoculated with A549 lung cancer cells: angiogenesis and tumor growth; assay type: in vivo, chicken; settings: A549 on CAM, 5 days
Protocol: To confirm inhibitory effects on angiogenesis through in vivo experiments, the CAM analysis was carried out (refer to Nguyen M et al., Microvascular Res., 47, pp 31-40, 1994). A fertilized egg of a chicken was cultured in conditions maintaining a temperature of 37° C. and relative humidity of 55%. On the 9th day of the culturing, a first small hole was made on an air sac part using a hypodermic needle (Green Cross Medical Corp., Korea), and then, a second hole was made on a flat part of the fertilized egg to make a window thereon. Air was removed through the first hole, i.e., the air sac part, and accordingly, the CAM was separated from the shell of the fertilized egg. Then, a grinding wheel (Multipro 395JA, Dremel, Mexico) was used to cut the air sac part, thereby making a window thereon. Meanwhile, A549 lung cancer cells were mixed with matrigel at a ratio of 1:1, and then, the mixture was treated with Compounds 8a, 8b, and 8g, respectively, followed by being inoculated at a density of 1.5×10^6 cells/CAM.
After 5 days of the inoculation, the CAM part on which tumors were formed was isolated, and then, washed with PBS. The Stemi SV6 stereomicroscope (Carl Zeiss, Germany) and the Image-Pro Plus software (Media Cybernetics; Silver Spring, Md., USA) were used to capture images of the CAM part, so as to measure the number of the blood vessels and to analyze data obtained therefrom.

[2] = 1 μM, MDA-MB-231 invasion, 5% FBS, 18 hours

SMILES: CCCNC(=O)[C@H]1O[C@@H]1C(=O)N[C@H](C(=O)N1CCC[C@H]1C(=O)OC)[C@@H](C)CC [CA-074 Me]
- Inhibition rates (%) (MDA-MB-231 cells; 1 nM, MDA-MB-231 invasion, 5% FBS, 18 hours): 19.73 ± 2.31 %
- Inhibition rates (%) (MDA-MB-231 cells; 5 nM, MDA-MB-231 invasion, 5% FBS, 18 hours): 34.26 ± 2.30 %
- Inhibition rates (%) (MDA-MB-231 cells; 25 nM, MDA-MB-231 invasion, 5% FBS, 18 hours): 44.45 ± 1.43 %
- invasion of MDA-MB-231 cells (in words) (MDA-MB-231 cells): decreased invasion of the cells

SMILES: Cc1nc(NC(=O)CC(C)C)c(C)c(C)c1O [Compound 8e, N-(5-hydroxy-3,4,6-trimethylpyridine-2-yl)-3-methylbutanamide]
- inhibition at 1 µM (HT-29 cells / U937 cells): 64.2%
- inhibition in vivo at 0.01 nmol/CAM [1]: 75.6 ± 8.9%

SMILES: Cc1nc(NC(=O)C2CCCCC2)c(C)c(C)c1O [Compound 8h, N-(5-hydroxy-3,4,6-trimethylpyridine-2-yl)cyclohexane carboxamide]
- inhibition at 1 µM (HT-29 cells / U937 cells): 64.5%
- inhibition in vivo at 0.01 nmol/CAM [1]: 76.3 ± 7.2%

SMILES: Cc1nc(NC(=O)Cc2ccccc2)c(C)c(C)c1O [Compound 8i, N-(5-hydroxy-3,4,6-trimethylpyridine-2-yl)-2-penylacetamide]
- Inhibitory rates (%) (HT-29 cells / U937 cells): 56.6* %
- Inhibitory rates (%) [1]: 69.6 ± 11.0 %

SMILES: Cc1nc(NC(=O)c2ccccc2)c(C)c(C)c1O [Compound 8k, N-(5-hydroxy-3,4,6-trimethylpyridine-2-yl)benzamide]
- inhibition at 1 µM (HT-29 cells / U937 cells): 18.5%
- inhibition in vivo at 0.01 nmol/CAM [1]: 77.3 ± 13.1%

SMILES: COc1ccc(C(=O)Nc2nc(C)c(O)c(C)c2C)cc1 [Compound 8m, N-(5-hydroxy-3,4,6-trimethylpyridine-2-yl)-4-methoxybenzamide]
- inhibition at 1 µM (HT-29 cells / U937 cells): 13.9%
- inhibition in vivo at 0.01 nmol/CAM [1]: 69.7 ± 4.5%

SMILES: Cc1nc(NC(=O)c2ccc3c(c2)OCO3)c(C)c(C)c1O [Compound 8o, N-(5-hydroxy-3,4,6-trimethylpyridine-2-yl)benzo[d][1,3]dioxol-5-carboxamide]
- inhibition at 1 µM (HT-29 cells / U937 cells): 40.2%
- inhibition in vivo at 0.01 nmol/CAM [1]: 64.8 ± 17.4%

SMILES: Cc1nc(NC(=O)c2cccc(O)c2)c(C)c(C)c1O [Compound 8v, 3-hydroxy-N-(5-hydroxy-3,4,6-trimethylpyridine-2-yl)benzamide]
- inhibition at 1 µM (HT-29 cells / U937 cells): 54.1%

SMILES: Cc1nc(NC(=O)CC(C)CC(C)(C)C)c(C)c(C)c1O (centres unmarked) [Compound 8w, N-(5-hydroxy-3,4,6-trimethylpyridine-2-yl)-3,5,5-trimethylhexanamide]
- inhibition at 1 µM (HT-29 cells / U937 cells): 54.5%

SMILES: Cc1nc(NC(=O)Cc2ccc(Cl)cc2)c(C)c(C)c1O [Compound 8x, 2-(4-chlorophenyl)-N-(5-hydroxy-3,4,6-trimethylpyridine-2-yl)acetamide]
- inhibition at 1 µM (HT-29 cells / U937 cells): 41.5%

SMILES: Cc1nc(NC(=O)C(Cl)Cl)c(C)c(C)c1O [Compound 8y, 2,2-dichloro-N-(5-hydroxy-3,4,6-trimethylpyridine-2-yl)acetamide]
- inhibition at 1 µM (HT-29 cells / U937 cells): 60.6%

SMILES: Cc1nc(NC(=O)C=Cc2ccccc2)c(C)c(C)c1O [Compound 8z, N-(5-hydroxy-3,4,6-trimethylpyridine-2-yl)cinnamide]
- Inhibitory rates (%) (HT-29 cells / U937 cells): 25.2%

SMILES: CC(C)(F)C[C@H](N[C@@H](c1ccc(-c2ccc(S(C)(=O)=O)cc2)cc1)C(F)(F)F)C(=O)NC1(C#N)CC1 [Odanacatib]
- inhibition at 0.04 µM (MDA-MB-231 cells; Homo sapiens, 0.04 μM, MDA-MB-231 invasion, 5% FBS, 18 hours, read-out: Inhibition rates (%)): 14.9 ± 4.14%
- inhibition at 0.2 µM (MDA-MB-231 cells; Homo sapiens, 0.2 μM, MDA-MB-231 invasion, 5% FBS, 18 hours, read-out: Inhibition rates (%)): 19.9 ± 3.77%
- inhibition at 1 µM (MDA-MB-231 cells; Homo sapiens, 1 μM, MDA-MB-231 invasion, 5% FBS, 18 hours, read-out: Inhibition rates (%)): 22.3 ± 3.7%

SMILES: CC(C)CC(=O)N[C@H](C(=O)N[C@H](C(=O)N[C@@H](CC(C)C)[C@@H](O)CC(=O)N[C@@H](C)C(=O)N[C@@H](CC(C)C)[C@@H](O)CC(=O)O)C(C)C)C(C)C [Pepstatin A] (Isovaleryl-VV[Sta]A[Sta]-OH)
- Inhibition rates (%) (MDA-MB-231 cells; [2]): 3.42 ± 0.42%
- Inhibition rates (%) (MDA-MB-231 cells; 5 μM, MDA-MB-231 invasion, 5% FBS, 18 hours): 4.04 ± 0.33%
- Inhibition rates (%) (MDA-MB-231 cells; 25 μM, MDA-MB-231 invasion, 5% FBS, 18 hours): 5.54 ± 0.77%

SMILES: CN(C)c1ccc(/C=C2\C(=O)Nc3ccccc32)cc1 [SU4312, reference compound]
- Inhibitory rates (%) [1]: 74.6 ± 8.5 %
- Inhibition rates of angiogenesis (%) (A549 lung cancer cells; 0.01 pmol/CAM): 20.8 ± 1.4 %
- Inhibition rates of tumor growth (%) (A549 lung cancer cells; 0.01 pmol/CAM): 16.2 ± 20.4%
- Inhibition rates of angiogenesis (%) (A549 lung cancer cells; 0.1 pmol/CAM): 25.1 ± 2.8 %
- Inhibition rates of tumor growth (%) (A549 lung cancer cells; 0.1 pmol/CAM): 23.4 ± 9.3%
- Inhibition rates of angiogenesis (%) (A549 lung cancer cells; 1.0 pmol/CAM): 36.2 ± 1.9 %
- Inhibition rates of tumor growth (%) (A549 lung cancer cells; 1.0 pmol/CAM): 26.8 ± 4.9%

SMILES: O=C(NC(Cc1ccccc1)C(=O)NC(Cc1ccccc1)C(=O)CF)OCc1ccccc1 (stereo not drawn) [Z-FF-FMK] (Cbz-Phe-Phe-CH2F; configuration not given here)
- Inhibition rates (%) (MDA-MB-231 cells; 0.04 μM, MDA-MB-231 invasion, 5% FBS, 18 hours): 3.42 ± 2.08%
- Inhibition rates (%) (MDA-MB-231 cells; 0.2 μM, MDA-MB-231 invasion, 5% FBS, 18 hours): 6.97 ± 2.35%
- Inhibition rates (%) (MDA-MB-231 cells; [2]): 10.16 ± 2.16 %

SMILES: CC(C)C[C@H](NC(=O)[C@H](Cc1ccccc1)NC(=O)OCc1ccccc1)C(=O)C=O [Z-FL-COCHO]
- Inhibition rates (%) (MDA-MB-231 cells; 0.4 nM, MDA-MB-231 invasion, 5% FBS, 18 hours): 34.36 ± 3.00 %
- Inhibition rates (%) (MDA-MB-231 cells; 2 nM, MDA-MB-231 invasion, 5% FBS, 18 hours): 44.67 ± 2.61 %
- Inhibition rates (%) (MDA-MB-231 cells; 10 nM, MDA-MB-231 invasion, 5% FBS, 18 hours): 50.12 ± 2.76 %
- invasion of MDA-MB-231 cells (in words) (MDA-MB-231 cells): decreased invasion of the cells
